Assays:
Assay in all cases: HTRF
[1] = molecular target: ABL1 (human) (UniProt P00519)
[2] = molecular target: BLK (human) (UniProt P51451)
[3] = molecular target: BTK (human) (UniProt Q06187)
[4] = molecular target: CSF1R (human) (UniProt P07333)
[5] = molecular target: EPHA2 (human) (UniProt P29317)
[6] = molecular target: ERBB4 (human) (UniProt Q15303)
[7] = molecular target: FER (human) (UniProt P16591)
[8] = molecular target: FGFR1 (human) (UniProt P11362)
[9] = molecular target: FGFR3 (human) (UniProt P22607)
Chain of FGFR3 (human) (P22607 whole entry, looked up): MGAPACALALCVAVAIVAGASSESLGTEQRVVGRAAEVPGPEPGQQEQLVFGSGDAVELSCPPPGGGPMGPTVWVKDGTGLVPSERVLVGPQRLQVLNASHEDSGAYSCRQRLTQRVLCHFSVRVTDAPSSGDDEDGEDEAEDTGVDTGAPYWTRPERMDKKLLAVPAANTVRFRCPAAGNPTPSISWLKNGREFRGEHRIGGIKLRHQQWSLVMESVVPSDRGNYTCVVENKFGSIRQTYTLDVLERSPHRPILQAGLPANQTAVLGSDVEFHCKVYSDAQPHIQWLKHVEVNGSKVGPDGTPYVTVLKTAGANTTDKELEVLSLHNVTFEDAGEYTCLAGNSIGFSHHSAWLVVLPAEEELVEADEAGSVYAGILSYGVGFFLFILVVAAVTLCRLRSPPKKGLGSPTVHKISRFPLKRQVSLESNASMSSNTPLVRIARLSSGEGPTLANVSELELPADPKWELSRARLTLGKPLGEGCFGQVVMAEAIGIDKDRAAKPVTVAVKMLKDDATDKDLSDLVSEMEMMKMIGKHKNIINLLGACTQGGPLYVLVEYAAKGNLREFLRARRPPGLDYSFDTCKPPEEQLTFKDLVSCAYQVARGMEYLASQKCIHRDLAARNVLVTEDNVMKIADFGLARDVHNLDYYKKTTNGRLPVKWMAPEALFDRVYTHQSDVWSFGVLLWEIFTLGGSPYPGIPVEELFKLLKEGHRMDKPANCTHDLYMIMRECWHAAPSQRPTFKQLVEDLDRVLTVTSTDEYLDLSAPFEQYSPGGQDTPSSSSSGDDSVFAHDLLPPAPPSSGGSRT

[10] = molecular target: FLT1 (human) (UniProt P17948)
[11] = molecular target: FLT3 (human) (UniProt P36888)
[12] = molecular target: FLT4 (human) (UniProt P35916)
[13] = molecular target: FRK (human) (UniProt P42685)
[14] = molecular target: FYN (human) (UniProt P06241)
[15] = molecular target: IGF1R (human) (UniProt P08069)
[16] = molecular target: INSR (human) (UniProt P06213)
[17] = molecular target: KIT (human) (UniProt P10721)
[18] = molecular target: LCK (human) (UniProt P06239)
[19] = molecular target: MATK (human) (UniProt P42679)
Chain of MATK (human) (P42679 whole entry, looked up): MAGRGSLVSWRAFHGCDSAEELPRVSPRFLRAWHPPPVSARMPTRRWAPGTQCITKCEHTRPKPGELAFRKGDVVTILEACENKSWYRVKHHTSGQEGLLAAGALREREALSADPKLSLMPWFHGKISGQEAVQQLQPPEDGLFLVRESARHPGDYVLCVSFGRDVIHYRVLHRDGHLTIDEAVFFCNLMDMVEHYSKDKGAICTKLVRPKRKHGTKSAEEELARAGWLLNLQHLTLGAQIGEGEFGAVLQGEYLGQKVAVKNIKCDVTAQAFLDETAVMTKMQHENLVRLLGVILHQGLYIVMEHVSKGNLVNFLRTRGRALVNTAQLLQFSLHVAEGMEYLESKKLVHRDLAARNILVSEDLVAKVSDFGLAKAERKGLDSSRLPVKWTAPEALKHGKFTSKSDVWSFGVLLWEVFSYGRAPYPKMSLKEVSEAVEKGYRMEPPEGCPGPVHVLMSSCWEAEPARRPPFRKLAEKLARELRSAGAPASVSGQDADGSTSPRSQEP

[20] = molecular target: NTRK1 (human) (UniProt P04629)
[21] = molecular target: NTRK2 (human) (UniProt Q16620)
[22] = molecular target: RET (human) (UniProt P07949)
Chain of RET (human) (P07949 whole entry, looked up): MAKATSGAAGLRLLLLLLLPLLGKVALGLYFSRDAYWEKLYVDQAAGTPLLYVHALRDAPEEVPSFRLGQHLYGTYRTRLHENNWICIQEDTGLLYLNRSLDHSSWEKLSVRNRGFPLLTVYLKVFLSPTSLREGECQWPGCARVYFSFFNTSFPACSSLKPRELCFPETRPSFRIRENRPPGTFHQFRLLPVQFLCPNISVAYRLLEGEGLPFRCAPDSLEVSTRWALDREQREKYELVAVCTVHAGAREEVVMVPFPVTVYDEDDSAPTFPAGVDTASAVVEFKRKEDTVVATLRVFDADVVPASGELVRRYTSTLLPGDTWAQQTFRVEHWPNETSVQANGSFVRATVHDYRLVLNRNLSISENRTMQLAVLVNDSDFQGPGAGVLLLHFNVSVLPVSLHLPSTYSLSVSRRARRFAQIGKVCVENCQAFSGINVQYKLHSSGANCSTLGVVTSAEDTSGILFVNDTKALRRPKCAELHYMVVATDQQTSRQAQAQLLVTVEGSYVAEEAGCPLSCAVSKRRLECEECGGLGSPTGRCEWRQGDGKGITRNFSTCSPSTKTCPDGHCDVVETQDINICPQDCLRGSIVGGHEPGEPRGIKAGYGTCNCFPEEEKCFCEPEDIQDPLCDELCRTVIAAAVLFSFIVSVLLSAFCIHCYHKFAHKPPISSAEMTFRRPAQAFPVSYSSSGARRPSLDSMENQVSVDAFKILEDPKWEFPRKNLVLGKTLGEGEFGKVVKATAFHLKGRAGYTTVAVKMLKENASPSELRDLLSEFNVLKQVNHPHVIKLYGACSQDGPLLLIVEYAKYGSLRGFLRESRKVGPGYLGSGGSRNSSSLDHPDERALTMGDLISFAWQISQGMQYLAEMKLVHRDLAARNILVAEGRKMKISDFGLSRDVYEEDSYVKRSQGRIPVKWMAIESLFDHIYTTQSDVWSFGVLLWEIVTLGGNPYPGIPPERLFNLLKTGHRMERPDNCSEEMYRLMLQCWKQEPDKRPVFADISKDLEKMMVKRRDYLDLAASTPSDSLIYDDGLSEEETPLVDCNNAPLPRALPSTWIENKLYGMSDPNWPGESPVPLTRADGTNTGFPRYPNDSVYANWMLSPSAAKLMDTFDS

[23] = molecular target: SRC (human) (UniProt P12931)
[24] = molecular target: SRMS (human) (UniProt Q9H3Y6)
[25] = molecular target: TYK2 JH1 JH2 (human) (UniProt P29597)
Chain of TYK2 JH1 JH2 (human) (P29597 whole entry, looked up): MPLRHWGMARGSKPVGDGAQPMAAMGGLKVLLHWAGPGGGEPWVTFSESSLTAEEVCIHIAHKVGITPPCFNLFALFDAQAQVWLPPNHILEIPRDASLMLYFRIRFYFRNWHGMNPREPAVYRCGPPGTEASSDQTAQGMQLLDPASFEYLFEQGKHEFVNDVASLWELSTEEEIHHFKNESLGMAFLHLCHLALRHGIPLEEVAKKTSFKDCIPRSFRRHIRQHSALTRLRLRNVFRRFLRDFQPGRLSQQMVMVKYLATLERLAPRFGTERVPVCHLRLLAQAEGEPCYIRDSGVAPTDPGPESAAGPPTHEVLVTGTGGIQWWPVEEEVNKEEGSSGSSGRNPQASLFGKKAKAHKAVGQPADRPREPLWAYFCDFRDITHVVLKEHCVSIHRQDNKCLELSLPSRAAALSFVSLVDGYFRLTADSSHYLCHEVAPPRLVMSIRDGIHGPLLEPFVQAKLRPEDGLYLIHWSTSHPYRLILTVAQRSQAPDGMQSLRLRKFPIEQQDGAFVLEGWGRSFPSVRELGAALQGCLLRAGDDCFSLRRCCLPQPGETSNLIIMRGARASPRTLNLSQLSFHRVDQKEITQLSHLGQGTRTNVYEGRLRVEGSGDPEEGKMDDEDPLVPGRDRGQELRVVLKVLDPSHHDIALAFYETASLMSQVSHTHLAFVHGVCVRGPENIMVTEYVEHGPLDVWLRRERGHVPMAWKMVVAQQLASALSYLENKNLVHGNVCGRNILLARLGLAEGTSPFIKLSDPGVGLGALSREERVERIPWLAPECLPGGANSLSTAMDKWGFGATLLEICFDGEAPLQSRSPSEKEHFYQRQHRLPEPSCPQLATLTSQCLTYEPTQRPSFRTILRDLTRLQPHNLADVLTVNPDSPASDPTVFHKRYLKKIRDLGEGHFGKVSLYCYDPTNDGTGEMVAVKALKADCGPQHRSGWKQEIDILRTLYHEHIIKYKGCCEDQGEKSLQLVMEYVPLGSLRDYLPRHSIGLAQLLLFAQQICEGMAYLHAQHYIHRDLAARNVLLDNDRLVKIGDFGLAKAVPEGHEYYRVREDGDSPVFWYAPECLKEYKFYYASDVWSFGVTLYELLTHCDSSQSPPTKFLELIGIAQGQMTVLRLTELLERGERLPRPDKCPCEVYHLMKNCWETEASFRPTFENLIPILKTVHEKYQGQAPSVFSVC

Chain of ABL1 (human) (P00519 whole entry, looked up): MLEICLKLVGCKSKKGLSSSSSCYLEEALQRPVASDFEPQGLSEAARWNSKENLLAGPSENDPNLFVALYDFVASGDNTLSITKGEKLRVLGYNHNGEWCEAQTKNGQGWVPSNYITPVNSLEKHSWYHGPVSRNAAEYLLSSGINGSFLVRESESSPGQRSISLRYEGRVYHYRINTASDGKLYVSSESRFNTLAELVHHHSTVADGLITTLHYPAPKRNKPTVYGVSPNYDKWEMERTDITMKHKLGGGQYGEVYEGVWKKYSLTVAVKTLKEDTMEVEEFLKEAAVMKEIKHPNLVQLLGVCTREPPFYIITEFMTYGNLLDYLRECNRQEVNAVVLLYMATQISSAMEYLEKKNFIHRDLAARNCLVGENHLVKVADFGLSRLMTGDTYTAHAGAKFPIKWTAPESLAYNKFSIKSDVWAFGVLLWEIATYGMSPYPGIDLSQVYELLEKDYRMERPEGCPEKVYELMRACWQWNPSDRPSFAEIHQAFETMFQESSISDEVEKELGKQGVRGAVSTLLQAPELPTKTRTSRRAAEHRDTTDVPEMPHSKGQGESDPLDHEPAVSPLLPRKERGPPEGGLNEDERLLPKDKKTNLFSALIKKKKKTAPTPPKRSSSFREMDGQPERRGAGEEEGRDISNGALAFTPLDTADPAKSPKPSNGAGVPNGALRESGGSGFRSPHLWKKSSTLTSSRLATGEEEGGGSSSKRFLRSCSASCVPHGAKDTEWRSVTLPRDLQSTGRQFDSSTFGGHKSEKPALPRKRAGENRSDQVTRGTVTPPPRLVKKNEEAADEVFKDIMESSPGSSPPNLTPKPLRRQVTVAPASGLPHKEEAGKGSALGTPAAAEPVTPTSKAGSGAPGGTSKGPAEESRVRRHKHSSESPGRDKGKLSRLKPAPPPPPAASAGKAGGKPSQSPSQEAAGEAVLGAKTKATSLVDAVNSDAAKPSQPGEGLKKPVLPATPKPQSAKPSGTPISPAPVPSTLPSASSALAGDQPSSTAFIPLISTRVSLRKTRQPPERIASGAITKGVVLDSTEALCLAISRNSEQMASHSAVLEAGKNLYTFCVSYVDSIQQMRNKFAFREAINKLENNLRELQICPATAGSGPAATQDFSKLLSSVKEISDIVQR

## O=C1c2ccccc2-c2n[nH]c3cccc1c23
[1]
  Ki: > 631 nM
[2]
  Ki: 200 nM
[3]
  Ki: > 1260 nM
[4]
  Ki: 126 nM
[5]
  Ki: > 3160 nM
[6]
  Ki: 3980 nM
[7]
  Ki: 50.1 nM
[8]
  Ki: 251 nM
[9]
  Ki: 158 nM
[10]
  Ki: 200 nM
[11]
  Ki: 50.1 nM
[12]
  Ki: 15.8 nM
[13]
  Ki: 63.1 nM
[14]
  Ki: > 794 nM
[15]
  Ki: > 2000 nM
[16]
  Ki: 501 nM
[17]
  Ki: 1260 nM
[18]
  Ki: 2000 nM
[19]
  Ki: 501 nM
[20]
  Ki: 1260 nM
[21]
  Ki: 794 nM
[22]
  Ki: 63.1 nM
[23]
  Ki: > 2000 nM
[24]
  Ki: > 1580 nM
[25]
  Ki: 1260 nM

Source: the kinase profiling compilation of Christmann-Franck et al. (2016)
